Entries after “also recorded” stand apart in the source; their conditions may differ.

The record followed here is PMC6973020, “Quinoline‐Conjugated Ruthenacarboranes: Toward Hybrid Drugs with a Dual Mode of Action” (Chemmedchem, 2019).

Data set [1] in a line: Stability in water‐containing DMSO‐d6 (NMR spectroscopy). It is filed as physicochemical. The conditions noted are these: in air, 1H and 11B{1H} NMR, over one month. On the procedure:
NMR spectroscopy. To determine the stability in biocompatible organic solvents, 3–5 (each ca. 3 mg) were dissolved in water‐containing DMSO‐d6 (0.6 mL) in air at room temperature, and periodically frozen (4–5 °C) and unfrozen. The solutions were analyzed with ^1H and ^11B{^1H} NMR spectroscopy over a period of one month.

In data set [2] the test system is MCF‐7 cells. Kind of data set: CFSE staining, flow cytometry, MCF‐7. It is filed as cell-based, human. The conditions noted are these: MCF‐7, 20 μM, 72 h. On the procedure:
(§1) Flow cytometry. For gaining better insights into the mechanisms of action of the ruthenium complexes, MCF‐7 and LN229 cells incubated with an IC50 dose of 3 or 4, were analyzed via flow cytometry. Several staining protocols were carried out in parallel, in independent experiments: i) AnnV/PI for the detection of apoptotic cell death, ii) AO for the detection of acidic vacuoles, iii) ApoStat for checking caspase activation, iv) CFSE for detecting interference with cellular proliferation, and v) DAPI for the detection of morphological signs of apoptosis. Untreated cells or cells treated only with BSA (control) were also measured, as reference for BSA‐free and BSA‐containing drug formulations, respectively. […] Channels FL1 (green emission), FL2 (orange emission) and/or FL3 (dark red emission) were used for fluorescence detection, according to the specific staining agent. Sideward Scatter (SSC) for MCF‐7 cells treated with 4 or BSA−4 was also analyzed, with respect to the control, for detection of shifts of cell granularity. […]
(§2) Staining Protocols for Flow Cytometric Analysis. […] Finally, cells were washed in PBS, resuspended in PBS (or AnnV‐binding buffer for AnnV/PI), and analysed. […] Cells were then washed, trypsinised, dissolved in PBS and analysed by CyFlow® Space Partec using the PartecFloMax® software (Partec GmbH, Münster, Germany). […]

Data set [3] deals with MCF‐7 cells. The data set is described as follows: Wound healing assay, MCF‐7. It is filed as cell-based, human. Particulars: MCF‐7, 20 μM, 72 h.
The subject of data set [4] is MCF‐7 cells. Kind of data set: ApoStat staining (caspase activation), MCF‐7. It is filed as cell-based, human. The conditions noted are these: MCF‐7, 20 μM, 72 h. On the procedure: as §1, §2

In the case of “closo ‐[3‐(η^6‐p‐Cymene)‐1‐(quinolin‐8‐yl‐acetate)‐3,1,2‐RuC2B9H10] [Compound 4]”, the “stability in water‐containing DMSO‐d6 solution” value in data set [1] is given as “stable; also recorded: sufficient chemical stability”. For the same substance, the “cellular proliferation (CFSE staining)” value in the data set on MCF‐7 cells [2] is recorded as “inhibition of cellular proliferation”. Besides, in the data set with MCF‐7 cells [3], the “cell migration (wound healing assay, in words)” value is given as “inhibited cell migration”. Also, the “caspase activation (ApoStat)” value with MCF‐7 cells [4] was “caspase‐independent apoptosis”.

For the substance “closo‐ [Compound 3, closo‐ [3‐(η^6‐p‐Cymene)‐1‐(CH2COOH)‐3,1,2‐RuC2B9H10]]”, the “stability in water‐containing DMSO‐d6 solution” value in data set [1] was “stable; also recorded: sufficient chemical stability”. Besides, in the data set on MCF‐7 cells [2], the “cellular proliferation (CFSE staining)” value is reported as “inhibition of cellular proliferation”. In the data set with MCF‐7 cells [3], the “cell migration (wound healing assay, in words)” value is on record as “inhibited cell migration”. Besides, the “caspase activation (ApoStat)” value in the data set with MCF‐7 cells [4] was “induce caspase activation”.
